Measurements reported in patent US11186566B2, “Modulator of cystic fibrosis transmembrane conductance regulator, pharmaceutical compositions, methods of treatment, and process for making the modulator” (Vertex Pharmaceuticals Incorporated, priority 2016, dated 2021).
Where two headings read alike, the source gives them in different places.

Columns and labels:
[1] = target: Human Serum Albumin (HSA) (Homo sapiens (Human), UniProt P02768); test: Chromatographic determination of Human Serum Albumin (HSA) binding; type: in vitro ADME; conditions: ChiralPak HSA column, retention time converted to % HSA
Protocol: 5B. Chromatographic Determination of Human Serum Albumin (HSA) Assay
Chromatographic determination of Human Serum Albumin (HSA) values was performed on a UPLC-MS system using a ChiralPak® HSA column (p/n: 58469AST) from Sigma Aldrich. Mobile phase A consisted of 50 mM ammonium acetate buffer in water adjusted to pH=7.4, and mobile phase B was 2-propanol. The column compartment was kept at constant temperature of 30° C. Determination of retention time on the HSA column was performed by injecting […] of 0.5 mM of compound (in DMSO) using a linear gradient from 0%-30% B in 2.5 minutes, followed by a hold at 30% B for 2 minutes, and the final equilibration step from […] in 1.5 minutes, for a total run time of 6 minutes. Flow rate was kept constant throughout the gradient and set to 1.8 mL/min. Compound retention time on the HSA column was converted to % HSA values according to a previously published protocol (Valko, et. al, 2003) correlating column retention times to standard plasma protein binding (PPB) values obtained from dialysis experiments. HSA data for certain compounds are summarized below in Table 8 below.
Valko, K., Nunhuck, S., Bevan, C., Abraham, M. H., Reynolds, D. P. Fast Gradient HPLC Method to Determine Compounds Binding to Human Serum Albumin. Relationships with Octanol/Water and Immobilized Artificial Membrane Lipophilicity. J. of Pharm. Sci. 2003, 92, 2236-2248.

[2] = Rat IV and PO PK studies; type: in vivo, male Sprague-Dawley rats; conditions: male, Sprague-Dawley, plasma; for bioavailability / AUC: oral; for bioavailability: read-out: Rat po % F; for clearance: intravenous, 3.0 mg/kg, read-out: Rat iv CL
Protocol: 5C. Experimental Protocol for Rat IV and PO PK Studies
[…] […] Analyses of plasma and dose preparations were performed using LC/MS/MS.
Plasma concentration-time profiles of the tested compound in Sprague-Dawley rats at scheduled (nominal) sampling times were analyzed by noncompartmental pharmacokinetic methods using PK function within Watson LIMS software, Version 7.4.2 (Thermo Scientific Inc, Waltham, Mass.). AUC values were calculated using the linear trapezoidal rule.

[3] = target: F508del-CFTR (Homo sapiens (Human), UniProt P13569, DEL508-508); test: Membrane potential optical (fluorescent voltage sensing dye, FLIPR III) HTS assay for F508del-CFTR modulators; type: cell-based
In short: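 NIH3T3 mouse fibroblasts stably expressing F508del-CFTR were seeded on matrigel-coated plates for 18–24 h at 37 °C. For correction assays they were cultured with or without compound for that period. Membrane potential was read on FLIPR III with voltage-sensing dyes, using a pH 7.4 NaCl/HEPES bath and a chloride-free gluconate substitute solution.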

[4] = target: human PXR (Homo sapiens (Human), UniProt O75469); test: PXR assay (PXR mediated CYP3A4 induction, DPX-2 cell line); type: cell-based; conditions: DPX-2 cells, 48 hours, 0.1 to 60 μM
Protocol: 5D. Experimental Protocol for PXR Assay
The propensity for PXR mediated CYP3A4 induction is assessed using the DPX-2 cell line in vitro. This cell line, which has been licensed from Puracyp Inc. was derived from HepG2 cells and has been stably transfected with genes encoding human PXR as well as a modified luciferase reporter linked to the CYP3A4 promoter region and related distal and proximal enhancers.
The assay is run in 384 well format and each test article is administered in 11 doses ranging from 0.1 to 60 μM. On day 1, DPX-2 cells which have previously been expanded in-house and cryopreserved are thawed and seeded in tissue culture plates. The following day, media is changed and cells are cultured in media containing test article, vehicle control or the positive control compound, the clinically validated CYP3A4 inducer rifampicin. Cells are cultured in the presence of test article for 48 hours and then cell viability is assessed using fluorescence based assay (Cell Titer-Fluor, Promega) with an EnVision Plate Reader (PerkinElmer). Subsequently, CYP3A4 transactivation, which is proportional to luciferase activity, is measured by reading luminescense using the Promega One-Glo reagent system using the same plate reader.
Data processing within the Genedata software package allows reporting of max fold induction compared to vehicle control, an EC50 value for CYP3A4 inducers and an 11 point-dose response curve.

[5] = F508del NIH 3T3 cells, assay 5A-A1, read-out: CFTRdF508 EC50
[6] = Table 9, read-out: CFTR dF508 EC50

Sequence of human PXR (O75469 whole entry): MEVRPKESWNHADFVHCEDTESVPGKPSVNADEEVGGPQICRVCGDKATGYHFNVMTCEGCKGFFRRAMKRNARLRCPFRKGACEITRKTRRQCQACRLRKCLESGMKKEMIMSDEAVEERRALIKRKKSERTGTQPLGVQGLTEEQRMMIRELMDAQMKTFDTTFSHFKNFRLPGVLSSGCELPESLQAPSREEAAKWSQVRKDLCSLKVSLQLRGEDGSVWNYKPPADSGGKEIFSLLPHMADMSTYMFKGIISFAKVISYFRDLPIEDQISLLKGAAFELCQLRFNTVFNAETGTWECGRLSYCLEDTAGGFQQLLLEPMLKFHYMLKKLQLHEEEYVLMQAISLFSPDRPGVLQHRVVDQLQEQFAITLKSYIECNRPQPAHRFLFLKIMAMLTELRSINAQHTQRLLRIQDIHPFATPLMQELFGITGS
Sequence of Human Serum Albumin (HSA) (P02768 25-609): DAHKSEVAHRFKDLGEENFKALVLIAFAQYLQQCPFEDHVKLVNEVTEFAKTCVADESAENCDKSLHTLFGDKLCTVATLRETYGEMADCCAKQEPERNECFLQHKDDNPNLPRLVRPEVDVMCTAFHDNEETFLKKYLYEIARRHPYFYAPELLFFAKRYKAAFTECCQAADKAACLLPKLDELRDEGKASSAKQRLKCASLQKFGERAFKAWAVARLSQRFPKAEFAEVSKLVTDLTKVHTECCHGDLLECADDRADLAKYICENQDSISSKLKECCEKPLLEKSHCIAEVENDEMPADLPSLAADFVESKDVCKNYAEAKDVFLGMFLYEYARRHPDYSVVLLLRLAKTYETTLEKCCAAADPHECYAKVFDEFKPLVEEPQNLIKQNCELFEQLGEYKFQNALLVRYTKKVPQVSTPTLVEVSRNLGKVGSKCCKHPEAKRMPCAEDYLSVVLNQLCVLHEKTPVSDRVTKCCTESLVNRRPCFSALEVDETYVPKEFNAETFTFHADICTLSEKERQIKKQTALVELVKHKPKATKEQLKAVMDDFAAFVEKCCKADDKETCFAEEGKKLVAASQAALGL
Sequence of F508del-CFTR (P13569 other isoform, or with tags, fused parts or gaps del F508-F508): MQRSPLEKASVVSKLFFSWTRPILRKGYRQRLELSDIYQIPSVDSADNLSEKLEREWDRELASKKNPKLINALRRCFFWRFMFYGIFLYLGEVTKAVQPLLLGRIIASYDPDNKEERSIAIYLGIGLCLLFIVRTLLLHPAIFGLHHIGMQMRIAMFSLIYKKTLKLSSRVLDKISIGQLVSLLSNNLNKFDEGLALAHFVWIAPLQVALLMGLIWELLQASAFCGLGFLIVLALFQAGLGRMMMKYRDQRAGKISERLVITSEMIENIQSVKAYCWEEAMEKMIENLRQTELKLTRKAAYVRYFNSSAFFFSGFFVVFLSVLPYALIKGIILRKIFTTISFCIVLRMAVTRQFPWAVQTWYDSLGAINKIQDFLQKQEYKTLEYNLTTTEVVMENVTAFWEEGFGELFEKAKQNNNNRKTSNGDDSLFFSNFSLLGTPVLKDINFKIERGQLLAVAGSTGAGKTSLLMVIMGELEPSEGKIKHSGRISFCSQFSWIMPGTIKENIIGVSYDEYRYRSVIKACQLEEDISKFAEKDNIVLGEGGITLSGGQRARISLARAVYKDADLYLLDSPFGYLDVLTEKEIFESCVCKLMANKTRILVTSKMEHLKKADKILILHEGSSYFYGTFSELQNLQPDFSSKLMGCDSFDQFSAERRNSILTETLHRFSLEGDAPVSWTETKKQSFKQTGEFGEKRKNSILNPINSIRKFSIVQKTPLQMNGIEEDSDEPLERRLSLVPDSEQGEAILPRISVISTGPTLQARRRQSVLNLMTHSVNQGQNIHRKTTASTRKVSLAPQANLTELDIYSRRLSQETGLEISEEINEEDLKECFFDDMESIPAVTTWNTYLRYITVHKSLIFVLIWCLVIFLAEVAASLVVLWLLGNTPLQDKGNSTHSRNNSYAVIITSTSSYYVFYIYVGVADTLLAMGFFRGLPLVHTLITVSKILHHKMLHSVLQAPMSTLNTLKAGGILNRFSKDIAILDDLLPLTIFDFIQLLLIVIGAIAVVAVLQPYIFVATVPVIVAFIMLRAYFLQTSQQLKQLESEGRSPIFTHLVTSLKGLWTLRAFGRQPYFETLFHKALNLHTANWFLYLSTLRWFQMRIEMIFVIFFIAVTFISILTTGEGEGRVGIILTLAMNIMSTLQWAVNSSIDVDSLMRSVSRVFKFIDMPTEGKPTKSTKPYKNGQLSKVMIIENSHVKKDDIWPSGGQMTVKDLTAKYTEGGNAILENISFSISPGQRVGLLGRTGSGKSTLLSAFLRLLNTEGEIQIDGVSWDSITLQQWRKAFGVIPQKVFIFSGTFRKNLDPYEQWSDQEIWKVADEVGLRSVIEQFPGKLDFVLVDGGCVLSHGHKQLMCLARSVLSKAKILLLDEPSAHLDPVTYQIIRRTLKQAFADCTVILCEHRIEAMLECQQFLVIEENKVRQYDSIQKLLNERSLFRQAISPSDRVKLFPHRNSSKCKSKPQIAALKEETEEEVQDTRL

HSA binding [1] | bioavailability ([2]; 3 mg/kg) | clearance [2] | AUC ([2]; 3 mg/kg) | EC50 [3, 5] | EC50 [3, 6] | PXR Max Induction (% of rifampicin) [4] | AUC ([2]; 10 mg/kg for Compound A, read-out: Rat po AUC) | Compound
98.1% | – | – | – | – | – | – | – | C[C@@H]1CN(c2nc(-n3ccc(OCC4(C(F)(F)F)CC4)n3)ccc2C(=O)NS(=N)(=O)c2ccccc2)C(C)(C)C1 (mixture of isomers)
97.9% | – | – | – | – | – | – | – | C[C@@H]1CN(c2nc(-n3ccc(OCC4(C(F)(F)F)CC4)n3)ccc2C(=O)NS(=N)(=O)c2ccccc2)C(C)(C)C1 (single isomer, unassigned) [drawing 339]
98.4% | – | – | – | – | – | – | – | C[C@@H]1CN(c2nc(-n3ccc(OCC4(C(F)(F)F)CC4)n3)ccc2C(=O)NS(=N)(=O)c2ccccc2)C(C)(C)C1 (single isomer, unassigned) [drawing 340]
– | 100% | 3.6 mL/min/kg | 20300 ng·h/mL | 100 to 1000 nM | 270 nM | 8 % of rifampicin | – | C[C@@H]1CN(c2nc(-n3ccc(OCC4(C(F)(F)F)CC4)n3)ccc2C(=O)NS(=O)(=O)c2ccc(C#N)cc2)C(C)(C)C1 [Comp. 27, N-(4-Cyanophenyl)sulfonyl-6-[3-[[1-(trifluoromethyl)cyclopropyl]methoxy]pyrazol-1-yl]-2-[(4S)-2,2,4-trimethylpyrrolidin-1-yl]pyridine-3-carboxamide]
– | 26% | 6.1 mL/min/kg | 2300 ng·h/mL | < 100 nM | 90 nM | 0 % of rifampicin | – | C[C@@H]1CN(c2nc(-n3ccc(OCC4C(C)(C)C4(C)C)n3)ccc2C(=O)NS(=O)(=O)c2ccccc2)C(C)(C)C1 [Comp. 30, N-(Benzenesulfonyl)-6-[3-[(2,2,3,3-tetramethylcyclopropyl)methoxy]pyrazol-1-yl]-2-[(4S)-2,2,4-trimethylpyrrolidin-1-yl]pyridine-3-carboxamide]
– | 81% | 5 mL/min/kg | 8500 ng·h/mL | 100 to 1000 nM | 620 nM | 18 % of rifampicin | – | C[C@@H]1CN(c2cc(-n3ccc(OCCC4(C(F)(F)F)CC4)n3)ncc2C(=O)NS(=O)(=O)c2ccccc2)C(C)(C)C1 [Comp. 44, (S)—N-(phenylsulfonyl)-6-(3-(2-(1-(trifluoromethyl)cyclopropyl)ethoxy)-1H-pyrazol-1-yl)-4-(2,2,4-trimethylpyrrolidin-1-yl)nicotinamide]
– | 100% | 5.2 mL/min/kg | 10500 ng·h/mL | < 100 nM | 50 nM | 17 % of rifampicin | – | C[C@@H]1CN(c2nc(-n3ccc(OCC4(C(F)(F)F)CC4)n3)ccc2C(=O)NS(=O)(=O)c2cccc(F)c2)C(C)(C)C1 [Comp. 51, N-(3-Fluorophenyl)sulfonyl-6-[3-[[1-(trifluoromethyl)cyclopropyl]methoxy]pyrazol-1-yl]-2-[(4S)-2,2,4-trimethylpyrrolidin-1-yl]pyridine-3-carboxamide]
– | 98% | 2.3 mL/min/kg | 13700 ng·h/mL | < 100 nM | 40 nM | 39 % of rifampicin | – | COc1ccccc1S(=O)(=O)NC(=O)c1ccc(-n2ccc(OCC3(C(F)(F)F)CC3)n2)nc1N1C[C@@H](C)CC1(C)C [Comp. 53, N-(2-methoxyphenyl)sulfonyl-6-[3-[[l-(trifluoromethyl)cyclopropyl]methoxy]pyrazol-1-yl]-2-[(4S)-2,2,4-trimethylpyrrolidin-1-yl]pyridine-3-carboxamide]
– | 28% | 17.8 mL/min/kg | – | – | – | 2 % of rifampicin | 1200 ng·h/mL | C[C@@H]1CN(c2nc(-n3ccc(OCC(C)(C)C)n3)ccc2C(=O)NS(=O)(=O)c2cccnc2N)C(C)(C)C1 [Comp. A, reference compound]
– | – | 29.2 mL/min/kg | – | – | – | 9 % of rifampicin | – | C[C@@H]1CN(c2nc(-n3ccc(OCC(C)(C)C)n3)ccc2C(=O)NS(=O)(=O)c2ccccc2)C(C)(C)C1 [Comp. B, reference compound]
– | 58% | 2 mL/min/kg | 14700 ng·h/mL | < 100 nM | 40 nM | 19 % of rifampicin | – | C[C@@H]1CN(c2nc(-n3ccc(OCC4(C(F)(F)F)CC4)n3)ccc2C(=O)NS(=O)(=O)c2ccccc2)C(C)(C)C1 [Compound 14, N-(Benzenesulfonyl)-6-[3-[[1-(trifluoromethyl)cyclopropyl]methoxy]pyrazol-1-yl]-2-[(4S)-2,2,4-trimethylpyrrolidin-1-yl]pyridine-3-carboxamide]
– | 12% | 24.8 mL/min/kg | 250 ng·h/mL | < 100 nM | 20 nM | 2 % of rifampicin | – | C[C@@H]1CN(c2nc(-n3ccc(OCC4C(C)(C)C4(C)C)n3)ccc2C(=O)NS(=O)(=O)c2cccc(F)c2)C(C)(C)C1 [Compound 16, N-(3-Fluorophenyl)sulfonyl-6-[3-[(2,2,3,3-tetramethylcyclopropyl)methoxy]pyrazol-1-yl]-2-[(4S)-2,2,4-trimethylpyrrolidin-1-yl]pyridine-3-carboxamide]
– | 31% | 6.7 mL/min/kg | 3600 ng·h/mL | 100 to 1000 nM | 120 nM | 4 % of rifampicin | – | C[C@@H]1CN(c2nc(-n3ccc(OCC4(C(F)(F)F)CC4)n3)ccc2C(=O)NS(=O)(=O)c2ccc(O)cc2)C(C)(C)C1 [Compound 22, N-(4-Hydroxyphenyl)sulfonyl-6-[3-[[1-(trifluoromethyl)cyclopropyl]methoxy]pyrazol-1-yl]-2-[(4S)-2,2,4-trimethylpyrrolidin-1-yl]pyridine-3-carboxamide]
– | 69% | 2.7 mL/min/kg | 12500 ng·h/mL | < 100 nM | 30 nM | 22 % of rifampicin | – | Cc1ccccc1S(=O)(=O)NC(=O)c1ccc(-n2ccc(OCC3(C(F)(F)F)CC3)n2)nc1N1C[C@@H](C)CC1(C)C [Compound 23, N-(o-Tolylsulfonyl)-6-[3-[[1-(trifluoromethyl)cyclopropyl]methoxy]pyrazol-1-yl]-2-[(4S)-2,2,4-trimethylpyrrolidin-1-yl]pyridine-3-carboxamide]
– | 98% | 2.6 mL/min/kg | 20000 ng·h/mL | < 100 nM | 70 nM | 9 % of rifampicin | – | Cc1ccc(S(=O)(=O)NC(=O)c2ccc(-n3ccc(OCC4(C(F)(F)F)CC4)n3)nc2N2C[C@@H](C)CC2(C)C)cc1 [Compound 24, N-(p-Tolylsulfonyl)-6-[3-[[1-(trifluoromethyl)cyclopropyl]methoxy]pyrazol-1-yl]-2-[(4S)-2,2,4-trimethylpyrrolidin-1-yl]pyridine-3-carboxamide]
– | 79% | 3.4 mL/min/kg | 9000 ng·h/mL | < 100 nM | 50 nM | 4 % of rifampicin | – | C[C@@H]1CN(c2nc(-n3ccc(OCC4C5(CC5)C45CC5)n3)ccc2C(=O)NS(=O)(=O)c2ccccc2)C(C)(C)C1 [Compound 64, N-(Benzenesulfonyl)-6-[3-(dispiro[2.0.2.1]heptan-7-ylmethoxy)pyrazol-1-yl]-2-[(4S)-2,2,4-trimethylpyrrolidin-1-yl]pyridine-3-carboxamide]
99.1% | – | – | – | – | – | – | – | C[C@@H]1CN(c2nc(-n3ccc(OCC4(C(F)(F)F)CC4)n3)ccc2C(=O)NS(=O)(=O)c2ccccc2)C(C)(C)C1 [drawing 337]
